Biological target: T1, BTK kinase (Homo sapiens, UniProt Q06187)
T1 construct: purchased Invitrogen PR5442A
Test: Assay of inhibition activity of BTK in vitro (HTRF kit, read on Envision)
Format: biochemical
Settings: not given
Experimental: Assay of Inhibition Activity of BTK In Vitro
The inhibition of compounds on BTK kinase was evaluated by […] detected by Envision, using the IC50 value of the compounds as index.
BTK kinase: Invitrogen-PR5442A
HTRF Assay Kit: Cisbio-62TKOPEJ
Plate for compound preparation: Greiner-781280
Cisbio HTRF Kit: Cisbio-62TKOPEJ
Centrifuge: Eppendorf-5810R
Bravo: Agilent Technologies-Bravo
Gradient Dilution of Compounds: […]
The test compound was dissolved with DMSO to be of 1 mM as a stock solution. Such a stock solution was diluted with DMSO by 10-fold, thereby obtaining an initial solution in a concentration of […] which was added into wells at the second column in a plate. 20 μL DMSO was added to other wells using Bravo. Then, 10 μL of the initial solution was transferred from wells at the second column to wells at the third column, followed by mixing obtained solution in the wells at the third column, thereby obtain a first diluted solution in a concentration of 1/3 μM. Subsequently, 10 μL of the first diluted solution was further transferred from wells at the third column to wells at the fourth column, followed by mixing obtained solution in the wells at the fourth column, thereby obtain a second diluted solution in a concentration of 1/9 μM. Such a three-fold serial dilution was performed 10 times, with 11 solutions in series diluted concentrations and a final diluted solution in a concentration of 0.017 nM obtained.
All diluted solutions were further diluted by 25-fold with ultrapure water, thus obtain test solutions, which were equilibrated at r.t. for 30 min before use.
To 2.5 μL of test solution, which was pipetted into each well of Assay plate using Bravo, 5 μL kinase mixture was added using the multi-channel pipettor. The mixture was centrifuged at 1000 rpm for 20 s, followed by incubation at 23° C. for 30 min. The reaction was initiated by 2.5 μL ATP mixture which was pipetted into the wells by Multidrop.
The reaction mixture of BTK kinase (10 μL) included 1.0 nM BTK, 1 μM biotin-TK1 peptide and 20 μM ATP. The reaction buffer included 50 mM Hepes (pH7.5), 10 mM MgCl2 and 0.01 mM […]. The kinase mixture was reacted in incubator at 23° C. for 90 mim.
The reaction was stopped by adding 10 μL Detection Reagent to each well of Assay plate, and the plate was left in incubator at 23° C. for 1 h before read on Envision.
Data analysis: The IC50 values of compounds were calculated using Excel fit.

T1 sequence (Q06187 whole entry): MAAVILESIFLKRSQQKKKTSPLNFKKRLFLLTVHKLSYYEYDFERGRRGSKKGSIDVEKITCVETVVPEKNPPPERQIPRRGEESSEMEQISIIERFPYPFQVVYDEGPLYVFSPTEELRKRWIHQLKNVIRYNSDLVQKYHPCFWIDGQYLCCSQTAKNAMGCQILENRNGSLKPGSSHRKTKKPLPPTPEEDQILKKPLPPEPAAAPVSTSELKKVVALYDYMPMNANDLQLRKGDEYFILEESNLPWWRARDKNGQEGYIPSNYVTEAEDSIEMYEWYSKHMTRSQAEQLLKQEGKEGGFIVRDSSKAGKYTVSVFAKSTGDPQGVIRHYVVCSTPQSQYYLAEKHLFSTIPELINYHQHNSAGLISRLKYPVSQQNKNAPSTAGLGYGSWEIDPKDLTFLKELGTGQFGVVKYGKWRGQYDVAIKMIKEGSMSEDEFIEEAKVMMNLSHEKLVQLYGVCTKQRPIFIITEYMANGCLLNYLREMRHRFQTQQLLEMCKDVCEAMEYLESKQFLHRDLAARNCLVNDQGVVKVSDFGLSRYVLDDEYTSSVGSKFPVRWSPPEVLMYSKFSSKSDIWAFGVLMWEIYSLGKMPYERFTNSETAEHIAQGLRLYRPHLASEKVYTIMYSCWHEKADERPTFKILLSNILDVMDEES

| Structure (SMILES) | IC50 [nM] |
| --- | --- |
| CN1CCN(c2ccc(Nc3cc(-c4ccc5c(c4)c(C(=O)c4ccc(C6CC6)cc4F)cn5C)cn(C)c3=O)nc2)CC1 [Example 5] | 1000 to 10000 |
| CN1CCN(C)[C@H](c2ccc(Nc3nc(-c4ccc5c(c4)c(C(=O)c4ccc(C6CC6)cc4F)cn5C)cn(C)c3=O)cc2)C1=O [Example 9] | 1000 to 10000 |
| CN1CCNC(=O)C1c1ccc(Nc2ccc(-c3ccc4c(c3)c(C(=O)c3ccc(C5CC5)cc3F)cn4C)n(C)c2=O)cc1 (stereo not drawn) [Example 16] | 100 to 1000 |

Same assay, conditions: 1.0 nM BTK, 1 μM biotin-TK1 peptide, 20 μM ATP, 23° C., tested by Envision; read-out: BTK IC50

| Structure (SMILES) | IC50 [nM] |
| --- | --- |
| C=CC(=O)N1CCC[C@@H](Nc2ncnc(N)c2C(=O)c2ccc(Oc3ccccc3)cc2)C1 [Example 1] | 100 to 1000 |
| C=CC(=O)N1CCC[C@@H](Nc2ncnc3[nH]c(=O)c(-c4ccccc4)cc23)C1 [Example 2] | 1000 to 10000 |
| C=CC(=O)N1CCC[C@@H](Nc2ncnc(N)c2C(=O)c2ccc(N(C)c3ccccc3)cc2)C1 [Example 3] | 1000 to 10000 |
| C=CC(=O)N1CCC[C@@H](Nc2ncnc(N)c2C(=O)c2ccc(Nc3ccccc3)cc2)C1 [Example 4] | 1000 to 10000 |
| Cc1ccn2c(=O)c(-c3cccc(-c4cc(Nc5ccc(N6CCN(C)CC6)cn5)c(=O)n(C)c4)c3C)cnc2c1 [Example 6] | 1000 to 10000 |
| Cc1c(-c2cc(Nc3ccc(N4CCN(C)CC4)cn3)c(=O)n(C)c2)cccc1-c1ccc(-c2ccccc2)n(C)c1=O [Example 7] | 1000 to 10000 |
| C=CC(=O)N1CCC[C@@H](Nc2ncnc3[nH]cc(-c4ccccc4)c(=O)c23)C1 [Example 8] | 1000 to 10000 |
| Cc1ccn2c(=O)c(-c3cccc(-c4cc(Nc5ccc(N6CCN(C)CC6)cn5)c(=O)n(C)c4)c3C)ccc2c1 [Example 10] | 1000 to 10000 |
| Cc1ccn2c(=O)c(-c3cccc(-c4cn(C)c(=O)c(Nc5ccc([C@@H]6C(=O)NCCN6C)cc5)n4)c3C)ccc2c1 [Example 11] | 1000 to 10000 |
| Cc1c(-c2cc(Nc3ccc(C4C(=O)NCCN4C)cc3)c(=O)n(C)c2)cccc1-c1ccc(-c2ccccc2)n(C)c1=O (stereo not drawn) [Example 12] | 1000 to 10000 |
| C=CC(=O)Nc1cccc2c1cnn2-c1nc(Nc2ccc(OCCOC)cc2)ncc1F [Example 13] | 1000 to 10000 |
| C=CC(=O)Nc1ccc2ncn(-c3nc(Nc4ccc(OCCOC)cc4)ncc3F)c2c1 [Example 14] | 1000 to 10000 |
| C=CC(=O)Nc1ccc2cnn(-c3ncnc(Nc4ccc(OCCOC)cc4)n3)c2c1 [Example 15] | 1000 to 10000 |
| C=CC(=O)N1CCC[C@@H](Nc2cc3ncc(-c4ccc(Oc5ccccc5)cc4)c(=O)n3cn2)C1 [Example 17] | 1000 to 10000 |
| C=CC(=O)N1CCC[C@@H](Nc2ncnc(N)c2-n2ncc3cc(Oc4ccccc4)ccc32)C1 [Example 18] | 1000 to 10000 |
| C=CC(=O)N1CCC[C@@H](Nc2ncnc(N)c2-n2ncc3cc(OCCOC)ccc32)C1 [Example 19] | 1000 to 10000 |
| C=CC(=O)N1CCCC(n2nc(-c3ccc(Oc4ccccc4)cc3)c3c(N)n[nH]c(=O)c32)C1 (stereo not drawn) [Example 20] | < 100 |
| C=CC(=O)N1CCCC(c2nc3cnc(Nc4ccc(OCCOC)cc4)nc3[nH]2)C1 (stereo not drawn) [Example 21] | 1000 to 10000 |
| C=CC(=O)Nc1ccc(-c2nc3cnc(Nc4ccc(OCCOC)cc4)nc3[nH]2)cc1 [Example 22] | < 100 |

| Structure (SMILES) | IC50 [nM] |
| --- | --- |
| COCCOc1ccc(Nc2ncc3[nH]c(CCN)nc3n2)cc1 [Example 23] | 1000 to 10000 |
| C=CC(=O)Nc1cccc(-n2cnc3cnc(Nc4ccc(OCCOC)cc4)nc32)c1 [Example 24] | 1000 to 10000 |
| C=CC(=O)N1CCC[C@@H](Nc2ncnc(N)c2C(=O)c2ccc(Oc3ccccc3)cc2C)C1 [Example 25] | 100 to 1000 |
| C=CC(=O)N1CCC[C@@H](Nc2ncnc(N)c2C(=O)c2ccc(Oc3ccccc3)cc2F)C1 [Example 26] | 1000 to 10000 |
| C=CC(=O)Nc1ccc2ncn(-c3ncnc(Nc4ccc(OCCOC)cc4)n3)c2c1 [Example 27] | 1000 to 10000 |
| C=CC(=O)N1CCC[C@@H](n2nc(-c3ccc(Oc4ccccc4)cc3)c3c(N)n[nH]c(=O)c32)C1 [Example 28] | < 100 |
| C=CC(=O)Nc1cccc(-n2cnc3cnc(Nc4ccc(Oc5ccccc5)cc4)nc32)c1 [Example 29] | 1000 to 10000 |
| C=CC(=O)N1CCCC(n2c(=O)c(-c3ccc(Oc4ccccc4)cc3)cc3c(N)ncnc32)C1 (stereo not drawn) [Example 30] | 100 to 1000 |
| C=CC(=O)N(C)CCn1nc(-c2ccc(Oc3ccccc3)cc2)c2c(N)n[nH]c(=O)c21 [Example 31] | < 100 |
| C=CC(=O)N1CCC[C@@H](n2nc(-c3ccc(Oc4ccccn4)cc3)c3c(N)n[nH]c(=O)c32)C1 [Example 32] | < 100 |
| C=CC(=O)N1CCC[C@@H](n2nc(-c3ccc(OC4CC4)cc3)c3c(N)n[nH]c(=O)c32)C1 [Example 33] | < 100 |
| CN(C)C/C=C/C(=O)N(C)CCn1nc(-c2ccc(Oc3ccccc3)cc2)c2c(N)n[nH]c(=O)c21 [Example 34] | < 100 |
| C=CC(=O)N1CCC[C@@H](n2nc(-c3ccc(OC4CC5CC5C4)cc3)c3c(N)n[nH]c(=O)c32)C1 (stereo partly drawn) [Example 35] | < 100 |
| Nc1n[nH]c(=O)c2c1c(-c1ccc(Oc3ccccc3)cc1)nn2[C@@H]1CCCN(C(=O)/C=C/CN2CCOCC2)C1 [Example 36] | < 100 |
| C=CC(=O)N1CCC[C@H]1Cn1nc(-c2ccc(Oc3ccccc3)cc2)c2c(N)n[nH]c(=O)c21 [Example 37] | < 100 |
| C=CC(=O)N1CCC[C@@H]1Cn1nc(-c2ccc(Oc3ccccc3)cc2)c2c(N)n[nH]c(=O)c21 [Example 38] | < 100 |
| C=CS(=O)(=O)N[C@H]1CC[C@@H](n2nc(-c3ccc(Oc4ccccn4)cc3)c3c(N)n[nH]c(=O)c32)CC1 [Example 39] | < 100 |
| C=CC(=O)N[C@H]1CC[C@@H](n2nc(-c3ccc(OC4CC5CC5C4)cc3)c3c(N)n[nH]c(=O)c32)CC1 (stereo partly drawn) [Example 41] | < 100 |
| C=CC(=O)N1CCCC(Nc2ncnc(N)c2C(=O)c2ccc(Oc3ccccc3)cc2Cl)C1 (stereo not drawn) [Example 42] | 100 to 1000 |

| Structure (SMILES) | IC50 [nM] |
| --- | --- |
| C=CC(=O)N1CCC(n2nc(-c3ccc(Oc4ccccc4)cc3)c3c(N)n[nH]c(=O)c32)C1 (stereo not drawn) [Example 43] | < 100 |
| C=CC(=O)N1CCC[C@@H](n2nc(-c3ccc(Oc4ccc(F)cn4)cc3)c3c(N)n[nH]c(=O)c32)C1 [Example 44] | < 100 |
| CC#CC(=O)N1CCC[C@@H](n2nc(-c3ccc(Oc4ccccc4)cc3)c3c(N)n[nH]c(=O)c32)C1 [Example 45] | < 100 |
| C=CC(=O)N1CC2(CC(n3nc(-c4ccc(Oc5ccccc5)cc4)c4c(N)n[nH]c(=O)c43)C2)C1 [Example 46] | < 100 |
| C=CC(=O)N1CCC[C@@H](n2nc(-c3ccc4c(cnn4-c4ccccc4)c3)c3c(N)n[nH]c(=O)c32)C1 [Example 47] | 1000 to 10000 |
| C=CC(=O)N1CCC[C@@H](n2nc(-c3ccc(-n4cc5ccccc5n4)cc3)c3c(N)n[nH]c(=O)c32)C1 [Example 48] | < 100 |
| C=CC(=O)N1CCC[C@@H](n2nc(-c3ccc(C4OCCO4)cc3)c3c(N)n[nH]c(=O)c32)C1 [Example 49] | < 100 |
| C=CC(=O)N1CCCC(n2nc(-c3ccc(Oc4ccccc4)cc3)c3c(N)nn(CCO)c(=O)c32)C1 (stereo not drawn) [Example 50] | 100 to 1000 |
| C=CC(=O)N1CCCCC(n2nc(-c3ccc(Oc4ccccc4)cc3)c3c(N)n[nH]c(=O)c32)C1 (stereo not drawn) [Example 51] | < 100 |
| C=CC(=O)N1CCCC(n2nc(-c3ccc(Oc4ccccc4)cc3)c3c(N)nn(C4CC4)c(=O)c32)C1 (stereo not drawn) [Example 52] | < 100 |
| C=CC(=O)N1CCC[C@@H](n2cc(-c3ccc(Oc4ccccc4)cc3)c3c(N)n[nH]c(=O)c32)C1 [Example 53] | < 100 |
| C=CC(=O)N1CCCC(n2nc(-c3ccc(Oc4ccccc4C)cc3)c3c(N)n[nH]c(=O)c32)C1 (stereo not drawn) [Example 54] | < 100 |
| C=CC(=O)N1CCCC(n2nc(-c3ccc(Oc4ccc(C)cc4)cc3)c3c(N)n[nH]c(=O)c32)C1 (stereo not drawn) [Example 55] | < 100 |
| C=CC(=O)N1CCCC(n2nc(-c3ccc(Oc4cccc(F)c4)cc3)c3c(N)n[nH]c(=O)c32)C1 (stereo not drawn) [Example 56] | < 100 |
| C=CC(=O)N[C@H]1CC[C@@H](n2nc(-c3ccc(Oc4ccccc4)cc3)c3c(N)n[nH]c(=O)c32)CC1 [Example 57] | < 100 |
| C=CS(=O)(=O)N[C@H]1CC[C@@H](n2nc(-c3ccc(Oc4ccccc4)cc3)c3c(N)n[nH]c(=O)c32)CC1 [Example 58] | < 100 |
| CN(C)C/C=C/C(=O)N[C@H]1CC[C@@H](n2nc(-c3ccc(Oc4ccccc4)cc3)c3c(N)n[nH]c(=O)c32)CC1 [Example 59] | < 100 |
| C=CC(=O)N1CC[C@@H](n2nc(-c3ccc(Oc4ccccc4)cc3)c3c(N)n[nH]c(=O)c32)C1 [Example 60] | < 100 |
| CN(C)C/C=C/C(=O)N1CC[C@@H](n2nc(-c3ccc(Oc4ccccc4)cc3)c3c(N)n[nH]c(=O)c32)C1 [Example 61] | < 100 |

From patent publication US10662174B2, “BTK inhibitor” (Hubei Bio-Pharmaceutical Industrial Technological Institute …, priority 2015, dated 2020)
